Measurements taken from patent US10463681B2, “Combination therapy for skin disorders” (M. Alphabet 1, LLC, priority 2010, dated 2019).

How the values were obtained:
Type in all cases: in vivo, human
[1] = test system: comedones and nodular and inflammatory lesions (acne in patients); assay: Placebo-controlled study in acne patients: counts of comedones and nodular and inflammatory lesions on the face
Procedure: (§1) Thirty-five patients (13-55 years of age) were enrolled in a placebo-controlled study. Twenty-seven patients were treated with oral administration of a capsule containing the ingredients of Formula 1 and eight patients were treated with a placebo capsule containing only doxycycline hyclate (50 mg). Patients received Formula 1 or placebo twice daily for twelve weeks. The number of comedones (“blackheads”) and nodular and inflammatory lesions (>2 mm in diameter) were counted on the face of each patient at baseline and at two weeks, six weeks and twelve weeks post-treatment.
The results are shown as the change at baseline and the percent change from baseline for each outcome measure after twelve weeks of treatment. Data are reported as mean values (±standard error of the mean, SEM) for each outcome measure. The results for ‘total lesions’ includes both comedones and inflammatory and nodular lesions.

[2] = test system: inflammatory and nodular lesions and comedones (acne in patients); assay: Investigator Global Assessment (IGA) score of the appearance of inflammatory and nodular lesions and comedones; settings: score of 1 to 10, 10 indicating the most improvement
Procedure: as §1
Next, an Investigator Global Assessment (IGA) score measuring the improvement of the appearance of inflammatory and nodular lesions and comedones was determined for each patient at baseline and 2 weeks and 6 weeks post-treatment. For this assessment the investigators were asked to evaluate whether their patient's lesions and comedones improved using a score of 1 to 10 with 10 indicating the most improvement.

[3] = test system: porphyrins, a measure of bacteria in pores; assay: Visia complexion analysis: average number of porphyrins
Procedure: Thirty-five patients (13-55 years of age) were enrolled in a placebo-controlled study. Twenty-seven patients were treated with oral administration of a capsule containing the ingredients of Formula 1 and eight patients were treated with a placebo capsule containing only doxycycline hyclate (50 mg). Patients received Formula 1 or placebo twice daily for twelve weeks. The number of comedones (“blackheads”) and nodular and inflammatory lesions (>2 mm in diameter) were counted on the face of each patient at baseline and at two weeks, six weeks and twelve weeks post-treatment. […] Lastly, the Visia™ complexion analysis system was used to assess the average number of porphyrins, a measure of bacteria in pores, in each patient.

patients = assay: Untoward effects in the placebo-controlled patient study; settings: twice daily for twelve weeks, oral capsule
Procedure: as §1

`C[C@H]1c2cccc(O)c2C(O)=C2C(=O)[C@]3(O)C(O)=C(C(N)=O)C(=O)[C@@H](N(C)C)[C@@H]3[C@@H](O)[C@@H]21` [Placebo, doxycycline hyclate] was tested. Which “Total Comedones, Change from baseline, %” value ([1]; 12 weeks vs baseline) did it give?
Its value is −27.4%.

And the “Total Inflammatory and Nodular Lesions, Change from baseline, %” value ([1]; 12 weeks vs baseline)?
Its value is −50.9%.

And the “Total Lesions, Change from baseline, %” value ([1]; 12 weeks vs baseline)?
The value was −35.6%.

And the “reduction of the total number of lesions (comedones and inflammatory and nodular lesions)” value ([1]; after twelve weeks of treatment)?
The value was 35.6%.

And the “reduction of the average number of comedones at twelve weeks compared to baseline” value ([1]; twelve weeks vs baseline)?
The value was 27.4%.

What about the “average number of comedones, week 2” value ([1]; week 2) of the same compound?
Its value is 29.0.

What about the “average number of comedones, week 6” value ([1]; week 6) of the same compound?
The value was 11.8.

And the “IGA score, baseline” value ([2]; baseline)?
The value was 2.3.

And the “IGA score, six weeks” value ([2]; six weeks)?
The value was 2.5.

And the “Por (BL), average number of porphyrins” value ([3]; baseline)?
Its value is 31.6.

And the “Por (W2), average number of porphyrins” value ([3]; week 2)?
Its value is 25.8.

What about the “Por (W6), average number of porphyrins” value ([3]; week 6) of the same compound?
The value was 15.7.

And the “Por (W12), average number of porphyrins” value ([3]; week 12)?
The value was 35.5.

And the serious untoward effects (patients)?
Its serious untoward effects is “No serious untoward effects”.
